Reference: US7772241B2, “Variolin derivatives and their use as antitumor agents” (Pharma Mar S.A., priority 2001, dated 2010)
Like-named read-outs stand apart in the source and are kept apart here.

Tests used:
HT-29 = assay: Inhibition of cells growth by colorimetric (SRB) assay, HT-29
In short: (§1)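 Read-out is sulforhodamine B protein stain (OD 490 nm) after cold TCA fixation, following 48 h continuous exposure to samples spanning 10 to 10^−8 μg/ml.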

LoVo-Dox = assay: Inhibition of cells growth by colorimetric (SRB) assay, LoVo-Dox
In short: as §1

SK-MEL-28 = assay: Inhibition of cells growth by colorimetric (SRB) assay, SK-MEL-28
In short: as §1

IGROV-1 = assay: Inhibition of cells growth by colorimetric (SRB) assay, IGROV-1
In short: as §1

HeLa-APL = assay: Inhibition of cells growth by colorimetric (SRB) assay, HeLa-APL
In short: as §1

HMEC1 = assay: Inhibition of cells growth by colorimetric (SRB) assay, HMEC1
[1] = as above; conditions: human, HMEC1 cells, LC50 H-MEC-1, SRB assay, 48 hours exposure
DU-145 = assay: Inhibition of cells growth by colorimetric (SRB) assay, DU-145
In short: as §1

A-549 = assay: Inhibition of cells growth by colorimetric (SRB) assay, A-549
In short: as §1

PANC-1 = assay: Inhibition of cells growth by colorimetric (SRB) assay, PANC-1
In short: as §1

IGROV-ET = assay: Inhibition of cells growth by colorimetric (SRB) assay, IGROV-ET
In short: as §1

SK-BR-3 = assay: Inhibition of cells growth by colorimetric (SRB) assay, SK-BR-3
In short: as §1

LoVo = assay: Inhibition of cells growth by colorimetric (SRB) assay, LoVo
In short: as §1

LNCaP = assay: Inhibition of cells growth by colorimetric (SRB) assay, LNCaP
In short: as §1

K-562 = assay: Inhibition of cells growth by colorimetric (SRB) assay, K-562
In short: as §1

HeLa = assay: Inhibition of cells growth by colorimetric (SRB) assay, HeLa
In short: as §1

SMILES: CSc1nccc(-c2c3c(O)ccnc3n3c(N)nccc23)n1 [Compound 95]
- GI50 (HT-29; Homo sapiens, HT-29, 48 h, read-out: GI50 HT-29, SRB assay, 48 hours exposure): ≥ 30.8 µM
- CC50 (HT-29; Homo sapiens, HT-29, 48 h, read-out: LC50 HT-29, SRB assay, 48 hours exposure): ≥ 30.8 µM
- HT-29 TGI (HT-29; SRB assay, 48 hours exposure): 3.08E−05
- TGI HT-29 (HT-29; SRB assay, 48 hours exposure): 3.08E−05
- GI50 (HT-29; read-out: HT-29 GI50, SRB assay, 48 hours exposure): ≥ 30.8 µM
- CC50 (HT-29; read-out: HT-29 LC50, SRB assay, 48 hours exposure): ≥ 30.8 µM
- LOVO-DOX TGI (LoVo-Dox; SRB assay, 48 hours exposure): 3.08E−05
- GI50 (LoVo-Dox; read-out: LOVO-DOX GI50, SRB assay, 48 hours exposure): ≥ 30.8 µM
- CC50 (LoVo-Dox; read-out: LOVO-DOX LC50, SRB assay, 48 hours exposure): ≥ 30.8 µM
- MEL-28 TGI (SK-MEL-28; SRB assay, 48 hours exposure): 3.08E−05
- GI50 (SK-MEL-28; read-out: MEL-28 GI50, SRB assay, 48 hours exposure): ≥ 30.8 µM
- CC50 (SK-MEL-28; read-out: MEL-28 LC50, SRB assay, 48 hours exposure): ≥ 30.8 µM
- IGROV TGI (IGROV-1; SRB assay, 48 hours exposure): 3.08E−05
- GI50 (IGROV-1; read-out: IGROV GI50, SRB assay, 48 hours exposure): ≥ 30.8 µM
- CC50 (IGROV-1; read-out: IGROV LC50, SRB assay, 48 hours exposure): ≥ 30.8 µM
- HELA-APL TGI (HeLa-APL; SRB assay, 48 hours exposure): 1.31E−08
- GI50 (HeLa-APL; read-out: HELA-APL GI50, SRB assay, 48 hours exposure): 0.00546 µM
- CC50 (HeLa-APL; read-out: HELA-APL LC50, SRB assay, 48 hours exposure): 0.0382 µM
- GI50 (HMEC1; Homo sapiens, HMEC-1, 48 h, read-out: GI50 H-MEC-1, SRB assay, 48 hours exposure): ≥ 30.8 µM
- TGI H-MEC-1 (HMEC1; SRB assay, 48 hours exposure, in M (unit assumed)): 3.08E−05
- CC50 at 48 h [1]: ≥ 30.8 µM
- DU-145 TGI (DU-145; SRB assay, 48 hours exposure): 3.08E−05
- GI50 (DU-145; read-out: DU-145 GI50, SRB assay, 48 hours exposure): 10.2 µM
- CC50 (DU-145; read-out: DU-145 LC50, SRB assay, 48 hours exposure): ≥ 30.8 µM
- GI50 (A-549; Homo sapiens, A549, 48 h, read-out: GI50 A-549, SRB assay, 48 hours exposure): ≥ 30.8 µM
- CC50 (A-549; Homo sapiens, A549, 48 h, read-out: LC50 A-549, SRB assay, 48 hours exposure): ≥ 30.8 µM
- A-549 TGI (A-549; SRB assay, 48 hours exposure): 3.08E−05
- TGI A-549 (A-549; SRB assay, 48 hours exposure): 3.08E−05
- GI50 (A-549; read-out: A-549 GI50, SRB assay, 48 hours exposure): 8.63 µM
- CC50 (A-549; read-out: A-549 LC50, SRB assay, 48 hours exposure): ≥ 30.8 µM
- PANC-1 TGI (PANC-1; SRB assay, 48 hours exposure): 3.08E−05
- GI50 (PANC-1; read-out: PANC-1 GI50, SRB assay, 48 hours exposure): 24.2 µM
- CC50 (PANC-1; read-out: PANC-1 LC50, SRB assay, 48 hours exposure): ≥ 30.8 µM
- IGROV-ET TGI (IGROV-ET; SRB assay, 48 hours exposure): 3.08E−05
- GI50 (IGROV-ET; read-out: IGROV-ET GI50, SRB assay, 48 hours exposure): 3.95 µM
- CC50 (IGROV-ET; read-out: IGROV-ET LC50, SRB assay, 48 hours exposure): ≥ 30.8 µM
- SK-BR-3 TGI (SK-BR-3; SRB assay, 48 hours exposure): 3.08E−05
- GI50 (SK-BR-3; read-out: SK-BR-3 GI50, SRB assay, 48 hours exposure): 1.52 µM
- CC50 (SK-BR-3; read-out: SK-BR-3 LC50, SRB assay, 48 hours exposure): ≥ 30.8 µM
- LOVO TGI (LoVo; SRB assay, 48 hours exposure): 3.08E−05
- GI50 (LoVo; read-out: LOVO GI50, SRB assay, 48 hours exposure): 11.3 µM
- CC50 (LoVo; read-out: LOVO LC50, SRB assay, 48 hours exposure): ≥ 30.8 µM
- LN-caP TGI (LNCaP; SRB assay, 48 hours exposure): 3.08E−05
- GI50 (LNCaP; read-out: LN-caP GI50, SRB assay, 48 hours exposure): 4.1 µM
- CC50 (LNCaP; read-out: LN-caP LC50, SRB assay, 48 hours exposure): ≥ 30.8 µM
- K-562 TGI (K-562; SRB assay, 48 hours exposure): 3.08E−05
- GI50 (K-562; read-out: K-562 GI50, SRB assay, 48 hours exposure): ≥ 30.8 µM
- CC50 (K-562; read-out: K-562 LC50, SRB assay, 48 hours exposure): ≥ 30.8 µM
- HELA TGI (HeLa; SRB assay, 48 hours exposure): 2.57E−08
- GI50 (HeLa; read-out: HELA GI50, SRB assay, 48 hours exposure): 0.00916 µM

SMILES: Nc1nccc(-c2c3cccnc3n3c(N)nccc23)n1 [Deoxyvariolin 4, deoxyvariolin B, reference compound]
- GI50 (HT-29; Homo sapiens, HT-29, 48 h, read-out: HT-29 GI50, SRB assay, 48 hours exposure): 0.117 µM
- CC50 (HT-29; Homo sapiens, HT-29, 48 h, read-out: HT-29 LC50, SRB assay, 48 hours exposure): 11.3 µM
- HT-29 TGI (HT-29; SRB assay, 48 hours exposure): 4.98E−07
- GI50 (LoVo-Dox; Homo sapiens, 48 h, read-out: LOVO-DOX GI50, SRB assay, 48 hours exposure): 0.101 µM
- CC50 (LoVo-Dox; Homo sapiens, 48 h, read-out: LOVO-DOX LC50, SRB assay, 48 hours exposure): 36.1 µM
- LOVO-DOX TGI (LoVo-Dox; SRB assay, 48 hours exposure): 2.96E−07
- GI50 (SK-MEL-28; Homo sapiens, SK-MEL-28, 48 h, read-out: MEL-28 GI50, SRB assay, 48 hours exposure): 0.0692 µM
- CC50 (SK-MEL-28; Homo sapiens, SK-MEL-28, 48 h, read-out: MEL-28 LC50, SRB assay, 48 hours exposure): 0.321 µM
- MEL-28 TGI (SK-MEL-28; SRB assay, 48 hours exposure): 1.49E−07
- GI50 (IGROV-1; Homo sapiens, IGROV-1, 48 h, read-out: IGROV GI50, SRB assay, 48 hours exposure): 0.0808 µM
- CC50 (IGROV-1; Homo sapiens, IGROV-1, 48 h, read-out: IGROV LC50, SRB assay, 48 hours exposure): 1.32 µM
- IGROV TGI (IGROV-1; SRB assay, 48 hours exposure): 8.10E−08
- GI50 (HeLa-APL; Homo sapiens, 48 h, read-out: HELA-APL GI50, SRB assay, 48 hours exposure): 0.066 µM
- CC50 (HeLa-APL; Homo sapiens, 48 h, read-out: HELA-APL LC50, SRB assay, 48 hours exposure): 0.318 µM
- HELA-APL TGI (HeLa-APL; SRB assay, 48 hours exposure): 1.45E−07
- GI50 (DU-145; Homo sapiens, DU-145, 48 h, read-out: DU-145 GI50, SRB assay, 48 hours exposure): 0.0952 µM
- CC50 (DU-145; Homo sapiens, DU-145, 48 h, read-out: DU-145 LC50, SRB assay, 48 hours exposure): 5.3 µM
- DU-145 TGI (DU-145; SRB assay, 48 hours exposure): 2.46E−07
- GI50 (A-549; Homo sapiens, A549, 48 h, read-out: A-549 GI50, SRB assay, 48 hours exposure): 0.0638 µM
- CC50 (A-549; Homo sapiens, A549, 48 h, read-out: A-549 LC50, SRB assay, 48 hours exposure): 12.2 µM
- A-549 TGI (A-549; SRB assay, 48 hours exposure): 2.62E−07
- GI50 (PANC-1; Homo sapiens, PANC-1, 48 h, read-out: PANC-1 GI50, SRB assay, 48 hours exposure): 0.162 µM
- CC50 (PANC-1; Homo sapiens, PANC-1, 48 h, read-out: PANC-1 LC50, SRB assay, 48 hours exposure): 15.4 µM
- PANC-1 TGI (PANC-1; SRB assay, 48 hours exposure): 1.76E−06
- GI50 (IGROV-ET; Homo sapiens, 48 h, read-out: IGROV-ET GI50, SRB assay, 48 hours exposure): 0.129 µM
- CC50 (IGROV-ET; Homo sapiens, 48 h, read-out: IGROV-ET LC50, SRB assay, 48 hours exposure): 22.9 µM
- IGROV-ET TGI (IGROV-ET; SRB assay, 48 hours exposure): 3.42E−07
- GI50 (SK-BR-3; Homo sapiens, SK-BR-3, 48 h, read-out: SK-BR-3 GI50, SRB assay, 48 hours exposure): 0.0736 µM
- CC50 (SK-BR-3; Homo sapiens, SK-BR-3, 48 h, read-out: SK-BR-3 LC50, SRB assay, 48 hours exposure): 0.345 µM
- SK-BR-3 TGI (SK-BR-3; SRB assay, 48 hours exposure): 1.59E−07
- GI50 (LoVo; Homo sapiens, LoVo, 48 h, read-out: LOVO GI50, SRB assay, 48 hours exposure): 0.102 µM
- CC50 (LoVo; Homo sapiens, LoVo, 48 h, read-out: LOVO LC50, SRB assay, 48 hours exposure): 22.1 µM
- LOVO TGI (LoVo; SRB assay, 48 hours exposure): 2.54E−07
- GI50 (LNCaP; Homo sapiens, LNCaP, 48 h, read-out: LN-caP GI50, SRB assay, 48 hours exposure): 0.0642 µM
- CC50 (LNCaP; Homo sapiens, LNCaP, 48 h, read-out: LN-caP LC50, SRB assay, 48 hours exposure): 0.272 µM
- LN-caP TGI (LNCaP; SRB assay, 48 hours exposure): 1.32E−07
- GI50 (K-562; Homo sapiens, K562, 48 h, read-out: K-562 GI50, SRB assay, 48 hours exposure): 0.727 µM
- CC50 (K-562; Homo sapiens, K562, 48 h, read-out: K-562 LC50, SRB assay, 48 hours exposure): 24.6 µM
- K-562 TGI (K-562; SRB assay, 48 hours exposure): 2.20E−06
- GI50 (HeLa; Homo sapiens, HeLa, 48 h, read-out: HELA GI50, SRB assay, 48 hours exposure): 0.0811 µM
- HELA TGI (HeLa; SRB assay, 48 hours exposure): 1.60E−07
